Values quoted from earlier work, collected in US5883103A, “Oral acyclovir delivery” (priority 1995, dated 1999).

Columns and labels:
[1] = test system: cellular α-DNA polymerase; conditions: compared with viral DNA polymerase
[2] = oral
[3] = test system: TK encoded by HSV, varicella zoster, and EBV
[4] = test system: thymidine kinase (TK) expressed by uninfected normal cells
[5] = test system: herpes simplex types I (HSV-1)
varicella-zoster = conditions: in vivo
[6] = test system: herpes simplex virus (HSV), cytomegalovirus (CMV) and varicella-zoster
[7] = test system: herpes simplex types 2 (HSV-2)

SMILES	effect on cellular α-DNA polymerase [1]	effect on viral DNA polymerase (viral DNA polymerase)	absorption [2]	bioavailability [2]	inhibition of varicella zoster (varicella zoster)	conversion by viral TK [3]	substrate for TK of uninfected normal cells [4]	inhibition of HSV-1 [5]	toxicity in vitro for uninfected normal cells (uninfected normal cells)	inhibition of CMV (cytomegalovirus (CMV))	effect on symptoms of acute varicella-zoster disease (varicella-zoster)	safety and efficacy in treatment of viral disease ([6]; immunocompromised and immunocompetent patients)	suppression of reactivated or newly acquired viral diseases ([6]; oral administration, genital herpes simplex, shingles, acute varicella-zoster)	morbidity and mortality from viral disease ([6]; pre- and postoperative prophylaxis, long-term (>6 months) oral)	inhibition of EBV (Epstein-Barr virus (EBV))	inhibition of HSV-2 [7]
Nc1nc2c(ncn2COCCOP(=O)(O)OP(=O)(O)OP(=O)(O)O)c(=O)[nH]1 [Acyclovir triphosphate]	to a lesser degree	interferes with viral DNA polymerase	–	–	–	–	–	–	–	–	–	–	–	–	–	–
Nc1nc2c(ncn2COCCO)c(=O)[nH]1 [acyclovir, 2-amino-1,9-dihydro-9-[(2-hydroxy-ethoxy)methyl]-6H-purin-6-one]	–	–	slowly and erratically absorbed	15-30%	inhibits	converts acyclovir into acyclovir monophosphate	not a substrate	inhibits	much less toxic in vitro for uninfected normal cells	inhibits	reduces fever, chronic pain, the progression of rash and accelerates cutaneous healing	safe and effective	suppression of reactivated or newly acquired viral diseases	reduced	inhibits	inhibits
